# Reference: patent publication US6673749B1, “Use of phyllocladane diterpenoids for plant growth promotion and alleviation of growth retardant allelochemicals, and method therefor” (Council of Scientific and Industrial Research, priority 2002, dated 2004)
# Experiments:
# Format in all cases: in vivo
# [1] = test system: Vigna radiata; assay: Seed germination and seedling shoot/root growth test in petridishes; conditions: Vigna radiata, control = 100%
# Experimental: (§1) As noted above the activity of phyllocladane diterpenoids used in the practice of this invention was observed when these compounds were tested for their effects on seed germination, root and shoot growth of certain plant species and their antagonistic effect on plant growth retardants by the method described by Bagchi G. D. et al Phytochemistry, 45(6)1131-1133, 1997.
# (§2) Plant growth promoting activity of calliterpenone, calliterpenone monoacetate, and calliterpenone di-acetate was examined at 0.1, 0.01 and 0.001 μM concentrations. The tests were conducted against seeds of two monocotyledonous (Hordeum vulgare and Triticum aestivum) and two dicotyledonous plants (Vigna radiata and Trigonella foenum-graecum). Control seeds were germinated in distilled water and all the observations were compared with […]. The root and shoot growth of all the plant species were affected by the phyllocladane diterpenoids, although the extent of effect varied considerably in the plant species with the chemicals and their concentrations. […] Details of the procedure adopted and results obtained are discussed in the various examples.
# (§3) 100 ml stalk solutions of 0.1 μM concentration were prepared by dissolving required amounts of various test compounds (depending upon their molecular weights) in minimum amount of ethanol or acetone and adding distilled water. From this stalk solution, 0.01 μM and 0.001 μM concentrations were prepared. Calliterpenone and calliterpenone di acetate was dissolved in 2.0 ml absolute ethanol (Merc), while; calliterpenone monoacetate, isopropylideno calliterpenone and trihydroxy calliterpenone were dissolved in 2.0 ml spectral grade acetone (Ranbaxy). The respective control test solutions of distilled water of each concentration also contained equal amount of absolute ethanol or acetone. For an assay, 10 seeds were placed on Whatman filter paper (moistened with 5.0 ml of test solution in a 9.0 cm diameter petridish (in triplicate). The pteridishes were incubated for 9 days in a germinator, maintained at 25.0±1.0° C. with 90% humidity and 4 hr light/day. At the end of incubation, observations were recorded on the seedlings in terms of germination, shoot and root growth. The data on the length of shoot and root of seedlings and number of seeds germinated in different concentrations of compounds were compared with the control, which was taken as 100%. The data thus obtained were presented in Table-1.
# (§4) Root growth of seedlings was measured in the similar way as shoot growth from the experiment as described in Example 1.
# (§5) Effect of test compounds on germination was observed from the same experiment as described in Example 1.
# [2] = test system: Hordeum vulgare; assay: as above; conditions: control = 100%
# Experimental: as §1, §2, §3, §4, §5
# [3] = test system: Trigonella foenum-graecum; assay: as above; conditions: for Percent (%) germination of seeds in relation to control on 9th day after sowing / Percent (%) root growth of seedlings in relation to control on 9th day after sowing / Percent (%) shoot growth of seedlings in relation to control on 9th day after sowing: Trigonella foenum graecum, control = 100%
# Experimental: as §1, §2, §3, §4, §5
# [4] = test system: Triticum aestivum; assay: as above; conditions: control = 100%
# Experimental: as §1, §2, §3, §4, §5
# [5] = test system: Hibiscus sabdariffa; assay: Seed germination and seedling growth, comparison with GA3 (Example 4)
# Experimental: as §3
# (§6) Effect of calliterpenone and its derivatives on seed germination and seedling growth in Hibiscus sabdariffa and Sesbania cannabina were measured in the similar way as these were measured in Example-1.
# [6] = test system: Sesbania cannabina; assay: as above
# Experimental: as §3, §6
# [7] = test system: Hibiscus sabdariffa; assay: Antagonistic effect with Artemisia annua seed extract on germination and seedling growth; conditions: A. annua seed extract (1.3 g seeds/100 ml) alone or mixed 1:1 with 0.01 μm compound, control = 100%
# Experimental: (§7) On the other hand, it is evident from Exp. 1-4 that phyllocladane diterpenenoids have produced germination and growth promoting activities on various plant species. To find out the combined effect of A. annua extract and phyllocladane diterpenoides on the germination and seedling growth of different plant species, 1:1 ratio of these compounds and A.annua extract were tested in the present experiment. For this, Hibiscus sabdariffa and Sesbania cannabina seeds were germinated in A.annua seed extract and solutions prepared by mixing this extract with 0.01 μm calliterpenone and calliterpenone mono-acetate respectively (Table 7). For the preparation of A.annua extract, 1.3 g seeds were soaked in 100 ml of distilled water for 24 hrs for testing on H. sabdariffa. Since, at this concentration, seeds of this species have shown 69% mortality which may be taken as good indicator. This effect was also recorded in S.cannabina. Since, in this case, seeds were almost half in weight as compared to the seeds of H. sabdariffa, accordingly, 0.65 g A. annua seeds were soaked in 100 ml of distilled water for 24 hrs to produce identical constraints in S. cannabina. For control, seeds were germinated in distilled water and all the observations were compared with it. […] Therefore, calliterpenone and its derivatives can be used to nullify the effects of other growth retardants/allelochemicals in the fields for their reclamation.
# [8] = test system: Sesbania cannabina; assay: as above; conditions: A. annua seed extract (0.65 g seeds/100 ml) alone or mixed 1:1 with 0.01 μm compound, control = 100%
# Experimental: as §7
smiles,measurement,setting,value
"CC1(C)C(=O)CC[C@@]2(C)[C@H]1CC[C@@]13C[C@H](CC[C@@H]12)[C@@](O)(CO)C3 [Calliterpenone, 16α, 17 dihydroxy phyllocladan-3 one]",Percent (%) germination of seeds in relation to control on 9th day after sowing,[1]; 0.001 μM,250%
same,Percent (%) root growth of seedlings in relation to control on 9th day after sowing,[1]; 0.001 μM,87%
same,Percent (%) shoot growth of seedlings in relation to control on 9th day after sowing,[1]; 0.001 μM,121%
same,Percent (%) germination of seeds in relation to control on 9th day after sowing,[1]; 0.01 μM,150%
same,Percent (%) root growth of seedlings in relation to control on 9th day after sowing,[1]; 0.01 μM,138%
same,Percent (%) shoot growth of seedlings in relation to control on 9th day after sowing,[1]; 0.01 μM,134%
same,Percent (%) germination of seeds in relation to control on 9th day after sowing,[1]; 0.1 μM,150%
same,Percent (%) root growth of seedlings in relation to control on 9th day after sowing,[1]; 0.1 μM,76%
same,Percent (%) shoot growth of seedlings in relation to control on 9th day after sowing,[1]; 0.1 μM,128%
same,Percent (%) germination of seeds in relation to control on 9th day after sowing,[2]; 0.001 μM,100%
same,Percent (%) root growth of seedlings in relation to control on 9th day after sowing,[2]; 0.001 μM,116%
same,Percent (%) shoot growth of seedlings in relation to control on 9th day after sowing,[2]; 0.001 μM,118%
same,Percent (%) germination of seeds in relation to control on 9th day after sowing,[2]; 0.01 μM,100%
same,Percent (%) root growth of seedlings in relation to control on 9th day after sowing,[2]; 0.01 μM,116%
same,Percent (%) shoot growth of seedlings in relation to control on 9th day after sowing,[2]; 0.01 μM,103%
same,Percent (%) germination of seeds in relation to control on 9th day after sowing,[2]; 0.1 μM,100%
same,Percent (%) root growth of seedlings in relation to control on 9th day after sowing,[2]; 0.1 μM,82%
same,Percent (%) shoot growth of seedlings in relation to control on 9th day after sowing,[2]; 0.1 μM,102%
same,Percent (%) germination of seeds in relation to control on 9th day after sowing,[3]; 0.001 μM,113%
same,Percent (%) root growth of seedlings in relation to control on 9th day after sowing,[3]; 0.001 μM,141%
same,Percent (%) shoot growth of seedlings in relation to control on 9th day after sowing,[3]; 0.001 μM,121%
same,Percent (%) germination of seeds in relation to control on 9th day after sowing,[3]; 0.01 μM,125%
same,Percent (%) root growth of seedlings in relation to control on 9th day after sowing,[3]; 0.01 μM,164%
same,Percent (%) shoot growth of seedlings in relation to control on 9th day after sowing,[3]; 0.01 μM,130%
same,Percent (%) germination of seeds in relation to control on 9th day after sowing,[3]; 0.1 μM,113%
same,Percent (%) root growth of seedlings in relation to control on 9th day after sowing,[3]; 0.1 μM,150%
same,Percent (%) shoot growth of seedlings in relation to control on 9th day after sowing,[3]; 0.1 μM,121%
same,Seed germination as compared to 100% in control,"[3]; Trigonella foenum-graceum, concentration not specified",113%
same,Percent (%) germination of seeds in relation to control on 9th day after sowing,[4]; 0.001 μM,100%
same,Percent (%) root growth of seedlings in relation to control on 9th day after sowing,[4]; 0.001 μM,136%
same,Percent (%) shoot growth of seedlings in relation to control on 9th day after sowing,[4]; 0.001 μM,105%
same,Percent (%) germination of seeds in relation to control on 9th day after sowing,[4]; 0.01 μM,100%
same,Percent (%) root growth of seedlings in relation to control on 9th day after sowing,[4]; 0.01 μM,80%
same,Percent (%) shoot growth of seedlings in relation to control on 9th day after sowing,[4]; 0.01 μM,100%
same,Percent (%) germination of seeds in relation to control on 9th day after sowing,[4]; 0.1 μM,100%
same,Percent (%) root growth of seedlings in relation to control on 9th day after sowing,[4]; 0.1 μM,80%
same,Percent (%) shoot growth of seedlings in relation to control on 9th day after sowing,[4]; 0.1 μM,95%
same,Germination as compared to respective control,[5]; 0.001 μM,133%
same,Germination compared with GA3,[5]; 0.001 μM,133%
same,Root growth as compared to respective control,[5]; 0.001 μM,157%
same,Seed Ger.,[5]; 0.001 μM,4
same,Shoot growth as compared to GA3 (100%),[5]; 0.001 μM,110%
same,Shoot growth as compared to respective control,[5]; 0.001 μM,182%
same,Root Growth (mm) 3rd Day,[5]; 0.001 μM,12.6 mm
same,Shoot growth 3rd Day,[5]; 0.001 μM,27.1
same,Root Growth (mm) 6th Day,[5]; 0.001 μM,28.6 mm
same,Shoot growth 6th Day,[5]; 0.001 μM,61.0
same,Root Growth (mm) 9th Day,"[5]; 0.001 μM, 9th day",33.4 mm
same,Root growth as compared to GA3 taken as 100%,"[5]; 0.001 μM, 9th day",134%
same,Shoot growth 9th Day,"[5]; 0.001 μM, 9th day",94.6
same,Seed Ger.,[5]; 0.01 μM,2
same,Root Growth (mm) 3rd Day,[5]; 0.01 μM,17.0 mm
same,Shoot growth 3rd Day,[5]; 0.01 μM,39.8
same,Root Growth (mm) 6th Day,[5]; 0.01 μM,19.2 mm
same,Shoot growth 6th Day,[5]; 0.01 μM,78.0
same,Root Growth (mm) 9th Day,"[5]; 0.01 μM, 9th day",25.8 mm
same,Shoot growth 9th Day,"[5]; 0.01 μM, 9th day",85.0
same,Seed Ger.,[5]; 0.1 μM,2
same,Root Growth (mm) 3rd Day,[5]; 0.1 μM,14.0 mm
same,Shoot growth 3rd Day,[5]; 0.1 μM,13.6
same,Root Growth (mm) 6th Day,[5]; 0.1 μM,21.5 mm
same,Shoot growth 6th Day,[5]; 0.1 μM,52.5
same,Root Growth (mm) 9th Day,"[5]; 0.1 μM, 9th day",23.0 mm
same,Shoot growth 9th Day,"[5]; 0.1 μM, 9th day",72.5
same,Germination as compared to respective control,[6]; 0.001 μM,150%
same,Germination compared with GA3,[6]; 0.001 μM,150%
same,Root growth as compared to respective control,[6]; 0.001 μM,119%
same,Seed Ger.,[6]; 0.001 μM,3
same,Shoot growth as compared to GA3 (100%),[6]; 0.001 μM,104%
same,Shoot growth as compared to respective control,[6]; 0.001 μM,120%
same,Root Growth (mm) 3rd Day,[6]; 0.001 μM,30.0 mm
same,Shoot growth 3rd Day,[6]; 0.001 μM,17.0
same,Root Growth (mm) 6th Day,[6]; 0.001 μM,33.6 mm
same,Shoot growth 6th Day,[6]; 0.001 μM,86.2
same,Root Growth (mm) 9th Day,"[6]; 0.001 μM, 9th day",43.4 mm
same,Root growth as compared to GA3 taken as 100%,"[6]; 0.001 μM, 9th day",109%
same,Shoot growth 9th Day,"[6]; 0.001 μM, 9th day",108.2
same,Seed Ger.,[6]; 0.01 μM,3
same,Root Growth (mm) 3rd Day,[6]; 0.01 μM,14.5 mm
same,Shoot growth 3rd Day,[6]; 0.01 μM,14.2
same,Root Growth (mm) 6th Day,[6]; 0.01 μM,21.0 mm
same,Shoot growth 6th Day,[6]; 0.01 μM,48.8
same,Root Growth (mm) 9th Day,"[6]; 0.01 μM, 9th day",34.8 mm
same,Shoot growth 9th Day,"[6]; 0.01 μM, 9th day",67.3
same,Seed Ger.,[6]; 0.1 μM,4
same,Root Growth (mm) 3rd Day,[6]; 0.1 μM,7.3 mm
same,Shoot growth 3rd Day,[6]; 0.1 μM,10.3
same,Root Growth (mm) 6th Day,[6]; 0.1 μM,16.0 mm
same,Shoot growth 6th Day,[6]; 0.1 μM,39.3
same,Root Growth (mm) 9th Day,"[6]; 0.1 μM, 9th day",24.8 mm
same,Shoot growth 9th Day,"[6]; 0.1 μM, 9th day",61.5
same,Percent (%) germination in relation to control on the 9th day after sowing,[7],nullified the germination retarding effect
same,"Percent (%) seedling growth, Root, in relation to control on the 9th day after sowing",[7],150%
same,"Percent (%) seedling growth, Stem, in relation to control on the 9th day after sowing",[7],130%
same,Percent (%) germination in relation to control on the 9th day after sowing,[8],no improvement in seed germination
same,"Percent (%) seedling growth, Root, in relation to control on the 9th day after sowing",[8],225%
same,"Percent (%) seedling growth, Stem, in relation to control on the 9th day after sowing",[8],144%
